Experimental findings from PubChem BioAssay (NCI) are described below.

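Test compounds were applied to cells in 96-well plates for 48 hours at 5 doses. GI50: concentration for 50% inhibition of growth. At the TGI there is no net growth.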 Some results are limits rather than exact numbers.

The test system of the first experiment is EKVX NSCLC. The experiment in a line: DTP human tumour cell line panel, 48 h.
As a reminder, the GI50 is the concentration giving 50% growth inhibition. For orientation: TGI means the concentration at which net growth stops. Regarding `CCNCCNc1cc(-c2ccc(C#N)cc2)c(C#N)c2nc3ccccc3n12`, the GI50 is 4.75 µM and the concentration for total growth inhibition (TGI) is 19.3 µM.
Take `[2H]c1nc(=Nc2cc(NC(=O)C=C)c(N(C)CCN(C)C)cc2OC)[nH]c(-c2cn(C([2H])([2H])[2H])c3ccccc23)c1[2H]`: the GI50 is 0.853 µM and the TGI is 11.5 µM.
With `COc1cc2nc(-c3ccc(C(F)(F)F)cc3)cc(OCCCN3CCCC3)c2cc1OC`, the GI50 was 0.848 µM and the total growth inhibition concentration (TGI) is 24.5 µM.
On the same counts, the results for `C/C1=C\CC[C@@](C)(O)[C@@H]2C[C@H](CC/C(C)=C/CC1)C1(CC1)C(=O)O2` are 45.4 µM and more than 100 µM.
Take `COc1ccc(C(=O)c2nc3ccccc3n2CC(=O)c2ccc(Cl)cc2)cc1`: the GI50 was 11.6 µM and the concentration for total growth inhibition (TGI) was more than 100 µM.
As for `O=C(NCCN1CCNCC1)c1ccc(Nc2nc3ccccc3c3occc23)cc1`, the GI50 was 9.45 µM and the TGI was 27.2 µM.
For the compound `COc1cc(C2c3cc4c(cc3[C@@H](Nc3ccc5c(c3)OCCO5)C3COC(=O)[C@H]23)OCO4)cc(OC)c1O` (stereo not given in full), the TGI was determined as 17 µM.

A further experiment relates to M14 melanoma. The experiment in a line: DTP human tumour cell line panel, 48 h.
In the case of `CCNCCNc1cc(-c2ccc(C#N)cc2)c(C#N)c2nc3ccccc3n12`, the GI50 is 1.88 µM and the TGI is 3.79 µM.
The matching figures for `[2H]c1nc(=Nc2cc(NC(=O)C=C)c(N(C)CCN(C)C)cc2OC)[nH]c(-c2cn(C([2H])([2H])[2H])c3ccccc23)c1[2H]`: 1.67 µM and 3.23 µM.
On the same counts, the results for `COc1cc2nc(-c3ccc(C(F)(F)F)cc3)cc(OCCCN3CCCC3)c2cc1OC` are 0.303 µM and 1.05 µM.
For `C/C1=C\CC[C@@](C)(O)[C@@H]2C[C@H](CC/C(C)=C/CC1)C1(CC1)C(=O)O2`, the GI50 was 32.7 µM and the concentration for total growth inhibition (TGI) came out at 91.6 µM.
As for `COc1ccc(C(=O)c2nc3ccccc3n2CC(=O)c2ccc(Cl)cc2)cc1`, the GI50 is 2.27 µM and the TGI is more than 100 µM.
`O=C(NCCN1CCNCC1)c1ccc(Nc2nc3ccccc3c3occc23)cc1`: the GI50 was 1.94 µM and the concentration for total growth inhibition (TGI) turned out to be 3.98 µM.
`COc1cc(C2c3cc4c(cc3[C@@H](Nc3ccc5c(c3)OCCO5)C3COC(=O)[C@H]23)OCO4)cc(OC)c1O` (stereo not given in full) yielded a total growth inhibition concentration (TGI) of 5.08 µM.

For a further experiment, the system named is NCI-H23 lung. Briefly: DTP human tumour cell line panel, 48 h.
For the compound `CCNCCNc1cc(-c2ccc(C#N)cc2)c(C#N)c2nc3ccccc3n12`, the GI50 was 5.3 µM and the concentration for total growth inhibition (TGI) was 21.3 µM.
In the case of `[2H]c1nc(=Nc2cc(NC(=O)C=C)c(N(C)CCN(C)C)cc2OC)[nH]c(-c2cn(C([2H])([2H])[2H])c3ccccc23)c1[2H]`, the GI50 is 3.14 µM and the total growth inhibition concentration (TGI) stood at 15.5 µM.
The matching figures for `COc1cc2nc(-c3ccc(C(F)(F)F)cc3)cc(OCCCN3CCCC3)c2cc1OC`: 2.9 µM and 17.6 µM.
On the same counts, the results for `C/C1=C\CC[C@@](C)(O)[C@@H]2C[C@H](CC/C(C)=C/CC1)C1(CC1)C(=O)O2` are 18.9 µM and 48.7 µM.
The matching figures for `COc1ccc(C(=O)c2nc3ccccc3n2CC(=O)c2ccc(Cl)cc2)cc1`: 4.61 µM and more than 100 µM.
On to `O=C(NCCN1CCNCC1)c1ccc(Nc2nc3ccccc3c3occc23)cc1`, for which the GI50 was 12.6 µM and the TGI came to 27.6 µM.
Turning to `COc1cc(C2c3cc4c(cc3[C@@H](Nc3ccc5c(c3)OCCO5)C3COC(=O)[C@H]23)OCO4)cc(OC)c1O` (stereo not given in full), the TGI was 2.79 µM.

For the next experiment, the system named is KM12 colon. Briefly: DTP human tumour cell line panel, 48 h.
For `CCNCCNc1cc(-c2ccc(C#N)cc2)c(C#N)c2nc3ccccc3n12`, the GI50 was 3.36 µM and the TGI is 12.2 µM.
As to `[2H]c1nc(=Nc2cc(NC(=O)C=C)c(N(C)CCN(C)C)cc2OC)[nH]c(-c2cn(C([2H])([2H])[2H])c3ccccc23)c1[2H]`, the GI50 is 3.15 µM and the concentration for total growth inhibition (TGI) was found to be 11.5 µM.
`COc1cc2nc(-c3ccc(C(F)(F)F)cc3)cc(OCCCN3CCCC3)c2cc1OC`: the GI50 was 1.73 µM and the concentration for total growth inhibition (TGI) was determined as 30.1 µM.
On the same counts, the results for `C/C1=C\CC[C@@](C)(O)[C@@H]2C[C@H](CC/C(C)=C/CC1)C1(CC1)C(=O)O2` are 25.4 µM and 68.5 µM.
As for `COc1ccc(C(=O)c2nc3ccccc3n2CC(=O)c2ccc(Cl)cc2)cc1`, the GI50 was 1.59 µM and the TGI was more than 100 µM.
On the same counts, the results for `O=C(NCCN1CCNCC1)c1ccc(Nc2nc3ccccc3c3occc23)cc1` are 19 µM and 40.6 µM.
Turning to `COc1cc(C2c3cc4c(cc3[C@@H](Nc3ccc5c(c3)OCCO5)C3COC(=O)[C@H]23)OCO4)cc(OC)c1O` (stereo not given in full), the TGI came to 10.9 µM.

In the next experiment the test system is DU-145 prostate. The experiment in a line: DTP human tumour cell line panel, 48 h.
Take `CCNCCNc1cc(-c2ccc(C#N)cc2)c(C#N)c2nc3ccccc3n12`: the GI50 is 4.13 µM and the total growth inhibition concentration (TGI) stood at 15.3 µM.
As for `[2H]c1nc(=Nc2cc(NC(=O)C=C)c(N(C)CCN(C)C)cc2OC)[nH]c(-c2cn(C([2H])([2H])[2H])c3ccccc23)c1[2H]`, the GI50 was 1.51 µM and the total growth inhibition concentration (TGI) is 11.8 µM.
Consider `COc1cc2nc(-c3ccc(C(F)(F)F)cc3)cc(OCCCN3CCCC3)c2cc1OC`, for which the GI50 was 0.992 µM and the total growth inhibition concentration (TGI) was more than 46.6 µM.
On the same counts, the results for `C/C1=C\CC[C@@](C)(O)[C@@H]2C[C@H](CC/C(C)=C/CC1)C1(CC1)C(=O)O2` are 41.8 µM and more than 100 µM.
As to `COc1ccc(C(=O)c2nc3ccccc3n2CC(=O)c2ccc(Cl)cc2)cc1`, the GI50 was 4.51 µM and the TGI was more than 100 µM.
The matching figures for `O=C(NCCN1CCNCC1)c1ccc(Nc2nc3ccccc3c3occc23)cc1`: 3.44 µM and 12.5 µM.
On to `COc1cc(C2c3cc4c(cc3[C@@H](Nc3ccc5c(c3)OCCO5)C3COC(=O)[C@H]23)OCO4)cc(OC)c1O` (stereo not given in full), for which the TGI is more than 100 µM.
